According to patent US20130225591A1, “IMIDOTHIAZOLE KINASE INHIBITORS” (priority 2009, published 2013):

Each molecule was assayed against T1, CDK5-p25 kinase (Homo sapiens, UniProt Q00535) (assay: CDK5-p25 kinase enzymatic assay). Settings: 50 nM-99 nM; 5 uM ATP, 0.3 nM CDK5-p25; read-out: IC50 potency, CDK5-p25 kinase enzymatic assay, 50 nM-99 nM.
T1 construct: purchased Invitrogen PV4677
Format: biochemical
Experimental: CDK5-p25 kinase (Invitrogen PV4677) enzymatic activity was measured using electrophoretic separation and fluorescent detection to monitor phosphorylation of a fluorescently labeled histone H1-derived peptide substrate, FL29 (5-FAM-GGGPATPKKAKKL-CONH2, Caliper #760429)
First, 0.25 uL of serially diluted compound in DMSO at 100× concentration was transferred into each well of a 384-well polystyrene assay plate. To this was added 15 uL of a 1.67× enzyme solution (500 pM enzyme, 1 mM DTT (Sigma D9779), 1× reconstitution buffer with protease inhibitor (Caliper #700329 proprietary formulation)), followed by centrifugation for 1 min at 1000 rpm, and incubation for 5-15 min at room temperature to allow binding of compound to enzyme. To initiate the reaction, 10 uL of substrate/ATP mix (245 mM Hepes pH 7.5, 0.003% Brij 35, 0.004% Tween, 12.75 uM ATP, 3.75 uM FL29 peptide) were added to each well, followed by centrifugation at 1000 rpm for 1 min. The reaction was then incubated at room temperature for 30 min. Final assay conditions were: 0.3 nM CDK5-p25, 1.5 uM peptide, 5 uM ATP, 0.6 mM DTT, 1% DMSO, 98 mM HEPES pH 7.5.
After incubation, reactions were quenched by the addition of 45 uL Caliper termination solution (Caliper proprietary formula), followed by centrifugation at 1000 rpm for 1 min. Extent of reaction (percentage conversion of substrate to phosphorylated product) was then measured using the Caliper EZ II reader. Dose-response curves were created by plotting the inhibition of enzyme activity (normalized relative to vehicle treated and no ATP control reactions) as a function of the log of compound concentration. The curve was analyzed using a four parameter logistical fit to calculate IC50 values.

T1 sequence (Q00535 whole entry): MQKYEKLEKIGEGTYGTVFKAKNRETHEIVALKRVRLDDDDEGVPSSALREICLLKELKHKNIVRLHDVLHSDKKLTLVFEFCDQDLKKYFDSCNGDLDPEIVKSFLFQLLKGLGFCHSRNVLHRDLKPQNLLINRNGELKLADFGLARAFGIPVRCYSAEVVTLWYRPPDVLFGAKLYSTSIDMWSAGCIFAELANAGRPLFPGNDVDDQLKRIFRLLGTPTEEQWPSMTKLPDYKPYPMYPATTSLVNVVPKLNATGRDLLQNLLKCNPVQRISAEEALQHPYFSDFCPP
T1 sequence (Q15078 99-307 partner limits assumed): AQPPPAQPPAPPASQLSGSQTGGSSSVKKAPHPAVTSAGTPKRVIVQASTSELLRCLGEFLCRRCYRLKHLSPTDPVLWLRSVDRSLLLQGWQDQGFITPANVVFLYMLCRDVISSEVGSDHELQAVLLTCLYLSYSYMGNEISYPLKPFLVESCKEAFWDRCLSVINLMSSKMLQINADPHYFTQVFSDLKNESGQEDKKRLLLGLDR

IC50	SMILES
50 to 99 nM	O=C(Nc1ncn2c(C(F)(F)F)csc12)C(O)c1ccc2ccccc2c1 (single isomer, unassigned) [Example 44, (R or S)-2-hydroxy-2-(2-naphthyl)-N-[3-(trifluoromethyl)imidazo[5,1-b][1,3]thiazol-7-yl]acetamide]
50 to 99 nM	O=C(Nc1ncn2c(C(F)(F)F)csc12)C(Cl)c1ccc2ccccc2c1 (single isomer, unassigned) [Example 45, (R or S)-2-chloro-2-(2-naphthyl)-N-[3-(trifluoromethyl)imidazo[5,1-b][1,3]thiazol-7-yl]acetamide]
50 to 99 nM	O=C(Cc1ccc(-c2ccncc2)cc1)Nc1ncn2c(C(F)(F)F)csc12 [Example 12, 2-(4-pyridin-4-ylphenyl)-N-[3-(trifluoromethyl)imidazo[5,1-b][1,3]thiazol-7-yl]acetamide]
50 to 99 nM	O=C(Cc1ccc(N2CCCC2=O)cc1)Nc1ncn2c(C(F)(F)F)csc12 [Example 17, 2-[4-(2-oxopyrrolidin-1-yl)phenyl]-N-[3-(trifluoromethyl)imidazo[5,1-b][1,3]thiazol-7-yl]acetamide]
50 to 99 nM	Cn1cc(-c2ccc(CC(=O)Nc3ncn4c(C(F)(F)F)csc34)cc2)cn1 [Example 20, 2-[4-(1-methyl-1H-pyrazol-4-yl)phenyl]-N-[3-(trifluoromethyl)imidazo[5,1-b][1,3]thiazol-7-yl]acetamide]
50 to 99 nM	O=C(Cc1ccc(-n2ccnc2)cc1)Nc1ncn2c(C(F)(F)F)csc12 [Example 23, 2-[4-(1H-imidazol-1-yl)phenyl]-N-[3-(trifluoromethyl)imidazo[5,1-b][1,3]thiazol-7-yl]acetamide]
50 to 99 nM	O=C(Cc1ccc(-c2ccnnc2)cc1)Nc1ncn2c(C(F)(F)F)csc12 [Example 26, 2-(4-pyridazin-4-ylphenyl)-N-[3-(trifluoromethyl)imidazo[5,1-b][1,3]thiazol-7-yl]acetamide]
50 to 99 nM	NCc1ccc(CC(=O)Nc2ncn3c(C(F)(F)F)csc23)cc1 [Example 27, 2-[4-(aminomethyl)phenyl]-N-[3-(trifluoromethyl)imidazo[5,1-b][1,3]thiazol-7-yl]acetamide]

Same assay, conditions: 500 nM-3 μM; 5 uM ATP, 0.3 nM CDK5-p25; read-out: IC50 potency, CDK5-p25 kinase enzymatic assay, 500 nM-3 μM

IC50	SMILES
500 to 3000 nM	O=C(Cc1cc2ccccc2cn1)Nc1ncn2c(C(F)(F)F)csc12 [Example 8, 2-isoquinolin-3-yl-N-[3-(trifluoromethyl)imidazo[5,1-b][1,3]thiazol-7-yl]acetamide]
500 to 3000 nM	NC(C(=O)Nc1ncn2c(C(F)(F)F)csc12)c1ccc2ccccc2c1 (centres unmarked) [Example 15, 2-amino-2-(2-naphthyl)-N-[3-(trifluoromethyl)imidazo[5,1-b][1,3]thiazol-7-yl]acetamide]
500 to 3000 nM	COc1ccc2cc(C(C)C(=O)Nc3ncn4c(C(F)(F)F)csc34)ccc2c1 (centres unmarked) [Example 18, 2-(6-methoxy-2-naphthyl)-N-[3-(trifluoromethyl)imidazo[5,1-b][1,3]thiazol-7-yl]propanamide]

Same assay, conditions: 5 uM ATP, 0.3 nM CDK5-p25; read-out: IC50 potency, CDK5-p25 kinase enzymatic assay, 100 nM-499 nM

IC50	SMILES
100 to 499 nM	COc1cccc(-c2ccc(CC(=O)Nc3ncn4c(C(F)(F)F)csc34)cc2)c1 [Example 10, 2-(3′-methoxybiphenyl-4-yl)-N-[3-(trifluoromethyl)imidazo[5,1-b][1,3]thiazol-7-yl]acetamide]
100 to 499 nM	O=C(CC1CCOCC1)Nc1ncn2c(C(F)(F)F)csc12 [Example 21, 2-(tetrahydro-2H-pyran-4-yl)-N-[3-(trifluoromethyl)imidazo[5,1-b][1,3]thiazol-7-yl]acetamide]
100 to 499 nM	Cc1cc(CC(=O)Nc2ncn3c(C(F)(F)F)csc23)on1 [Example 22, 2-(3-methylisoxazol-5-yl)-N-[3-(trifluoromethyl)imidazo[5,1-b][1,3]thiazol-7-yl]acetamide]
100 to 499 nM	N[C@H]1CC[C@H](CC(=O)Nc2ncn3c(C(F)(F)F)csc23)CC1 [Example 25, 2-(trans-4-amino-cyclohexyl)-N-[3-(trifluoromethyl)imidazo[5,1-b][1,3]thiazol-7-yl]acetamide]

Same assay, conditions: '<50 nM'; 5 uM ATP, 0.3 nM CDK5-p25; read-out: IC50 potency, CDK5-p25 kinase enzymatic assay, <50 nM

SMILES	IC50
O=C(Cc1ccc(N2CCOC2=O)cc1)Nc1ncn2c(C(F)(F)F)csc12 [Example 1, 2-[4-(2-Oxo-1,3-oxazolidin-3-yl)phenyl]-N-[3-(trifluoromethyl)imidazo[5,1-b][1,3]thiazol-7-yl]acetamide]	< 50 nM
O=C(Cc1ccc2ccccc2c1)Nc1ncn2c(C(F)(F)F)csc12 [Example 2, 2-(2-naphthyl)-N-[3-(trifluoromethyl)imidazo[5,1-b][1,3]thiazol-7-yl]acetamide]	< 50 nM
O=C(Cc1ccc2ncccc2c1)Nc1ncn2c(C(F)(F)F)csc12 [Example 3, 2-quinolin-6-yl-N-[3-(trifluoromethyl)imidazo[5,1-b][1,3]thiazol-7-yl]acetamide]	< 50 nM
O=C(Cc1ccc2ccncc2c1)Nc1ncn2c(C(F)(F)F)csc12 [Example 4, 2-isoquinolin-7-yl-N-[3-(trifluoromethyl)imidazo[5,1-b][1,3]thiazol-7-yl]acetamide]	< 50 nM
O=C(Cc1ccc2cnccc2c1)Nc1ncn2c(C(F)(F)F)csc12 [Example 5, 2-isoquinolin-6-yl-N-[3-(trifluoromethyl)imidazo[5,1-b][1,3]thiazol-7-yl]acetamide]	< 50 nM
COc1ccc2cc(CC(=O)Nc3ncn4c(C(F)(F)F)csc34)ccc2c1 [Example 6, 2-(6-methoxy-2-naphthyl)-N-[3-(trifluoromethyl)imidazo[5,1-b][1,3]thiazol-7-yl]acetamide]	< 50 nM
O=C(Cc1ccc(Cl)nc1)Nc1ncn2c(C(F)(F)F)csc12 [Example 7, 2-(6-chloropyridin-3-yl)-N-[3-(trifluoromethyl)imidazo[5,1-b][1,3]thiazol-7-yl]acetamide]	< 50 nM
COc1ccc2ccc(CC(=O)Nc3ncn4c(C(F)(F)F)csc34)cc2c1 [Example 9, 2-(7-methoxy-2-naphthyl)-N-[3-(trifluoromethyl)imidazo[5,1-b][1,3]thiazol-7-yl]acetamide]	< 50 nM
O=C(Cc1ccc(-c2cccnc2)cc1)Nc1ncn2c(C(F)(F)F)csc12 [Example 11, 2-(4-pyridin-3-ylphenyl)-N-[3-(trifluoromethyl)imidazo[5,1-b][1,3]thiazol-7-yl]acetamide]	< 50 nM
O=C(Cc1ccc2cccnc2c1)Nc1ncn2c(C(F)(F)F)csc12 [Example 13, 2-quinolin-7-yl-N-(3-(trifluoromethyl)imidazo[5,1-b][1,3]thiazol-7-yl]acetamide]	< 50 nM
COc1cccc2cc(CC(=O)Nc3ncn4c(C(F)(F)F)csc34)ccc12 [Example 14, 2-(5-methoxy-2-naphthyl)-N-[3-(trifluoromethyl)imidazo[5,1-b][1,3]thiazol-7-yl]acetamide]	< 50 nM

Second part, the molecule after the results:

IC50	SMILES
< 50 nM	O=C(Cc1ccc(-c2cn[nH]c2)cc1)Nc1ncn2c(C(F)(F)F)csc12 [Example 16, 2-[4-(1H-pyrazol-4-yl)phenyl]-N-(3-(trifluoromethyl)imidazo[5,1-b][1,3]thiazol-7-yl]acetamide]
< 50 nM	O=C(Cc1ccc(-c2cc[nH]n2)cc1)Nc1ncn2c(C(F)(F)F)csc12 [Example 19, 2-[4-(1H-pyrazol-3-yl)phenyl]-N-[3-(trifluoromethyl)imidazo[5,1-b][1,3]thiazol-7-yl]acetamide]
< 50 nM	O=C(Cc1cccc(-c2cn[nH]c2)c1)Nc1ncn2c(C(F)(F)F)csc12 [Example 24, 2-[3-(1H-pyrazol-4-yl)phenyl]-N-[3-(trifluoromethyl)imidazo[5,1-b][1,3]thiazol-7-yl]acetamide]
